Data as given in patent US20260028354A1, “TETRAHYDRONAPHTHALENE DERIVATIVES AS ESTROGEN RECEPTOR DEGRADERS” (REGENT OF THE UNIVERSITY OF MICHIGAN, priority 2022, published 2026).
Where two headings read alike, the source gives them in different places.

Assays:
[1] = target: ER in MCF-7 cells (Homo sapiens (Human), UniProt P03372); assay: In-cell Western (ICW) ER degradation assay in MCF-7 cells; format: cell-based; settings: for DC50: MCF-7, ER degradation, read-out: MCF7 DC50
[2] = system: MCF-7 cells; assay: CellTiter-Glo (CTG) cell proliferation assay in MCF-7 cells; format: cell-based; settings: Homo sapiens, MCF7, 144 h, MCF-7 cell proliferation, Day 6
From the text: CellTiter-Glo® (CTG) Assays in MCF-7 and T47D Cell Lines.
In vitro Assay: MCF-7 and T47D CTG assay

[3] = target: ER in T47D cells (Homo sapiens (Human), UniProt P03372); assay: In-cell Western (ICW) ER degradation assay in T47D cells; format: cell-based; settings: for DC50: ER degradation
Sequence of ER in T47D cells (P03372 whole entry): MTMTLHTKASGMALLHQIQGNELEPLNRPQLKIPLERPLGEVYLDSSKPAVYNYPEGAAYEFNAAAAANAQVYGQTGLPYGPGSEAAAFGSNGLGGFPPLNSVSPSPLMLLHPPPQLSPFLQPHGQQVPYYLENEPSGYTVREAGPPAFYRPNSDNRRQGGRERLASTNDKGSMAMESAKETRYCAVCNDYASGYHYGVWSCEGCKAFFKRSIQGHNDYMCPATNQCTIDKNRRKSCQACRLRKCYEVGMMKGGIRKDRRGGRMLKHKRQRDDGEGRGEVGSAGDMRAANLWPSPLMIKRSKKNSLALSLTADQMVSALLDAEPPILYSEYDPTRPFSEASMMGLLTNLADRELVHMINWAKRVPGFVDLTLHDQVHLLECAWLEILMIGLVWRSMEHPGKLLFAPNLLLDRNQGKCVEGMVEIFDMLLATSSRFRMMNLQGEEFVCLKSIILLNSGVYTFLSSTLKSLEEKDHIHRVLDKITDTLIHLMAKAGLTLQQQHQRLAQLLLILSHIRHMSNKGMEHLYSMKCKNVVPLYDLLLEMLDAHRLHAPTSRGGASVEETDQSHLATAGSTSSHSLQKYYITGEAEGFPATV

[4] = target: CRBN/DDB1 (Homo sapiens (Human), UniProt Q96SW2); format: binding; settings: His tagged CRBN+DDB1, Cy5-labeled Thalidomide probe, one hour; read-out: CRBN HTRF IC50
Sequence of CRBN/DDB1 (Q96SW2 whole entry, species assumed): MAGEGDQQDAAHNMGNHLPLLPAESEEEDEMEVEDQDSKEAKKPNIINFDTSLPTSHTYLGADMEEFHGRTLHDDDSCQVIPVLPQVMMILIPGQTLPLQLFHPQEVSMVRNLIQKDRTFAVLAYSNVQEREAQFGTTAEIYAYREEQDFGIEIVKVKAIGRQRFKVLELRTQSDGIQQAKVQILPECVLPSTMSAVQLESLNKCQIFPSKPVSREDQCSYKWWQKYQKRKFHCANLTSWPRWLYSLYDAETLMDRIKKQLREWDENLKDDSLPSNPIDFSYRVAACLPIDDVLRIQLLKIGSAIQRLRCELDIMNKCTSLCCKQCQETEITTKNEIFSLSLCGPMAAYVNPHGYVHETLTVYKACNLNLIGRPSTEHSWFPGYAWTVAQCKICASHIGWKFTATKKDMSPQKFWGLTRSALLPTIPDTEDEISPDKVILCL
Sequence of CRBN/DDB1 (Q16531 whole entry partner, species assumed): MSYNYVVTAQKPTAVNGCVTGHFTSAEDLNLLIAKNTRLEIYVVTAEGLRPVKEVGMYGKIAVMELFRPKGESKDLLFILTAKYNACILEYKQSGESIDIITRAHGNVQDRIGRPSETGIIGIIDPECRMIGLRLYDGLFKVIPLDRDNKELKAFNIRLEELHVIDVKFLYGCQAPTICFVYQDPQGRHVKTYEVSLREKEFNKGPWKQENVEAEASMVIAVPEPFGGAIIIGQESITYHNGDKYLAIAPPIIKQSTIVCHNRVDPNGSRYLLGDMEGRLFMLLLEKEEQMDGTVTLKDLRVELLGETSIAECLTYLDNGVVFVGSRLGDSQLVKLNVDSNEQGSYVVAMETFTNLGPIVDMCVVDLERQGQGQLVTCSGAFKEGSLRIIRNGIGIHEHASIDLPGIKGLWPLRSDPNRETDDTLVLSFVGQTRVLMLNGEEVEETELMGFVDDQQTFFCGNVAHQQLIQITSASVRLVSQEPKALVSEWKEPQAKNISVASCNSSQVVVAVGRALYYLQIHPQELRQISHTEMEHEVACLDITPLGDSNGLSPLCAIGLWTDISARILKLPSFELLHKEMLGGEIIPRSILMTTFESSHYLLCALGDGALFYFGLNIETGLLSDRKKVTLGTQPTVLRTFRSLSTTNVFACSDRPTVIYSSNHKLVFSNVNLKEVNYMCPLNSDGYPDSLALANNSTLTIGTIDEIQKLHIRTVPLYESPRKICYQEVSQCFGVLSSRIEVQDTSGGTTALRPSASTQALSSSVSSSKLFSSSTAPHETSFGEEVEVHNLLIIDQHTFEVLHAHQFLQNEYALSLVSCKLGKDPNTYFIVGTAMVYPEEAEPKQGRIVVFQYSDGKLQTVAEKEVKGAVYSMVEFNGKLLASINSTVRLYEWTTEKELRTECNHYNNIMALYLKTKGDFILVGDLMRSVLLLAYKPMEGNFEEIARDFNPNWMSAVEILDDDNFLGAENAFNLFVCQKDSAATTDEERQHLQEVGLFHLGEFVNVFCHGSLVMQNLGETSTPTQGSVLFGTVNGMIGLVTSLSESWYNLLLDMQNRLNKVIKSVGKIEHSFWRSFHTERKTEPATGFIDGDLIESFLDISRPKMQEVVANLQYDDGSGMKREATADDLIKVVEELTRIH
Method: The binding potency was determined using HTRF assay technology (Perkin Elmer). Compounds were serially diluted in DMSO and […] volume was transferred to white 384-well plate.

[5] = target: ERα_LBD (GST) (Homo sapiens (Human), UniProt P03372); assay: IC50 measurements for binding to ERα_LBD (GST), LanthaScreen TR-FRET competitive binding; settings: ERα_LBD (GST) 4 nM, Fluormone ES2 Green tracer, 60 min; read-out: ERα HTRF IC50
Sequence of ERα_LBD (GST) (P03372 311-547): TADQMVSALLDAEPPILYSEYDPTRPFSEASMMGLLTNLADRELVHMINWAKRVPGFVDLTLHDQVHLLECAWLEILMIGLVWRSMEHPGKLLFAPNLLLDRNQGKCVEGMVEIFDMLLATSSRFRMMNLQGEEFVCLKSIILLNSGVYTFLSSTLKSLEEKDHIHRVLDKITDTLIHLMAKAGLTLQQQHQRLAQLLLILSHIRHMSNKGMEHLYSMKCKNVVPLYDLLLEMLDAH
Method: In vitro Assay: IC50 Measurements for binding to ERα_LBD (GST) • Final assay conditions: • 1. ERα_LBD (GST) protein: 4 nM • 2. Tb Anti-GST: 2 nM • 3. Fluormone ES2 Green tracer: 3 nM • 4. Incubation time: 60 min • 5. DMSO: 1% • 6. Assay buffer: Adding 1M DTT to Nuclear receptor Buffer K for final 5 mM DTT. • 7. ZPE: 1% DMSO • 8. HPE: 1 μM ARV_471 (positive control) • 9. LanthaScreen® TR-FRET ERα Competitive Binding Assay (ThermoFisher, #A^15887) • 100× Compound preparation
1) Cherry pick 2 μL 10 mM compound stock to column 1 of a 384 intermediate plate. • 2) Add 18 μL DMSO to column 1 to dilute compound to 1 mM. • 3) Transfer 10 μL 1 mM compound to column 1 of a LDV plate. • 2) Add 6 μl DMSO to column 2-10 of the LDV plate. • 3) Compounds undergo 3-fold serial dilution (3 μL+6 μL) in DMSO. • 4) Transfer 120 nL compound solution to assay plate. ZPE: 120 nL 100% DMSO • Procedure:
Complete nuclear receptor buffer K was prepared by adding 1 M DTT to nuclear receptor buffer K for a final concentration of 5 mM DTT. Complete nuclear receptor buffer K must be prepared fresh daily, 2X protein solution was prepared using complete nuclear receptor buffer K containing 8 nM ERα_LBD (GST) and 4 nM Tb Anti-GST. Then, 2X Fluormone ES2 Green tracer (6 nM) was prepared using complete nuclear receptor buffer K. Add 6 μL 2X Fluormone ES2 green tracer into a compound plate (PerkinElmer 6008289) by dragonfly with one-tips-addition. Subsequently, 6 μL 2× protein solution was added into the plate. The 384-well plate was mixed on a plate shaker and incubated at room temperature protected from light for 60 min. The plate was scaled with a cover to minimize evaporation. The plate was read at wavelengths of 520 nm and 495 nm. The TR-FRET ratio was calculated by dividing the emission signal at 520 nm by the emission signal at 495 nm. A binding curve was generated by plotting the emission ratio vs, the log [ligand]. To determine the IC50 value, fit the data using XL-fit for a sigmoidal dose-response.

[6] = MCF7, MCF-7, maximal ER degradation, 16 hrs treatment, read-out: MCF7 Dmax
[7] = maximal ER degradation, 16 hrs treatment, read-out: T47D Dmax
[8] = MCF7, read-out: MCF7 Dmax, MCF-7, maximal ER degradation, 16 hrs treatment
[9] = read-out: T47D Dmax, T47D, maximal ER degradation, 16 hrs treatment

Sequence of ER in MCF-7 cells (P03372 whole entry): as the sequence (P03372 whole entry) above

Compound | Dmax [1, 6] | DC50 ([1]; 16 hrs treatment) | IC50 [2] | DC50 ([3]; 16 hrs treatment) | Dmax [3, 7] | IC50 [4] | IC50 [5] | Dmax [1, 8] | Dmax [3, 9] | MCF7 Dmax ([1]; MCF-7, maximal ER degradation, 16 hrs treatment)
COc1cc(N2CCC3(CC2)CC(CN2CCN4c5cc6c(cc5OC[C@@H]4C2)C(=O)N([C@H]2CCC(=O)NC2=O)C6)C3)ccc1[C@@H]1c2ccc(O)cc2CC[C@@H]1c1ccccc1 (single isomer, unassigned) [Compound A12] | > 75% | < 1 nM | 10 to 100 nM | < 1 nM | > 75% | 50 to 500 nM |  |  |  | 
O=C1CC[C@@H](Nc2ccc(C3CCN(CC4CCC5(CC4)CN(c4ccc([C@@H]6c7ccc(O)cc7CC[C@@H]6c6ccccc6)cc4)C5)CC3)cc2)C(=O)N1 (single isomer, unassigned) [Compound A65] | 50 to 75% | 1 to 10 nM | 10 to 100 nM | < 1 nM | > 75% | 50 to 500 nM |  |  |  | 
COc1cc(N2CCC(CN3CCN4c5cc6c(cc5OC[C@@H]4C3)C(=O)N([C@H]3CCC(=O)NC3=O)C6)CC2)c(F)cc1[C@@H]1c2ccc(O)cc2CC[C@@H]1c1ccccc1 [Compound A91, (S)-3-((S)-3-((1-(2-fluoro-4-((1S,2S)-6-hydroxy-2-phenyl-1,2,3,4-tetrahydronaphthalen-1-yl)-5-methoxyphenyl)piperidin-4-yl)methyl)-8-oxo-3,4,4a,5-tetrahydro-1H-pyrazino[1′,2′: 4,5][1,4]oxazino[2,3-f]isoindol-9 (2H,8H,10H)-yl)piperidine-2,6-dione] | > 75% | < 1 nM |  | < 1 nM | > 75% |  | < 10 nM |  |  | 
COc1cc(N2CCC(CN3CCC4(CC3)COc3cc5c(cc34)CN([C@H]3CCC(=O)NC3=O)C5=O)CC2)ccc1[C@@H]1c2ccc(O)cc2CC[C@@H]1c1ccccc1 [Compound A33, (R)-3-(1′-((1-(4-((1R,2R)-6-hydroxy-2-phenyl-1,2,3,4-tetrahydronaphthalen-1-yl)-3-methoxyphenyl)piperidin-4-yl)methyl)-7-oxo-5,7-dihydro-2H,6H-spiro[furo[2,3-f]iso-indole-3,4′-piperidin]-6-yl)-piperidine-2,6-dione] |  | < 1 nM |  | < 1 nM |  |  | < 10 nM | 50 to 75% | 50 to 75% | 
COc1cc(N2CCC3(CC2)CC(CN2CCC(c4ccc(N[C@H]5CCC(=O)NC5=O)cc4)CC2)C3)c(F)cc1[C@H]1c2ccc(O)cc2CC[C@H]1c1ccccc1 (single isomer, unassigned) [Compound A32] | 50 to 75% | 10 to 100 nM |  | 10 to 100 nM | 50 to 75% |  | > 100 nM |  |  | 
COc1cc(N2CCC3(CC2)CC(CN2CCN4c5cc6c(cc5OC[C@@H]4C2)C(=O)N([C@H]2CCC(=O)NC2=O)C6)C3)c(F)cc1[C@@H]1c2ccc(O)cc2CC[C@@H]1c1ccccc1 [Compound A101, (S)-3-((S)-3-((7-(2-fluoro-4-((1S,2S)-6-hydroxy-2-phenyl-1,2,3,4-tetrahydronaphthalen-1-yl)-5-methoxyphenyl)-7-azaspiro[3.5]nonan-2-yl)methyl)-8-oxo-1,2,3,4,4a,5,8,10-octahydro-9H-pyrazino[1′,2′: 4,5][1,4]oxazino[2,3-f]isoindol-9-yl)piperidine-2,6-dione] | > 75% | < 1 nM |  |  |  |  | < 10 nM |  |  | 
COc1cc(N2CCC3(CC2)CC(CN2CCN4c5ccc6c(c5OC[C@H]4C2)CN([C@H]2CCC(=O)NC2=O)C6=O)C3)c(F)cc1[C@@H]1c2ccc(O)cc2CC[C@@H]1c1ccccc1 [Compound A99, (S)-3-((R)-7-((7-(2-fluoro-4-((1S,2S)-6-hydroxy-2-phenyl-1,2,3,4-tetrahydronaphthalen-1-yl)-5-methoxyphenyl)-7-azaspiro[3.5]nonan-2-yl)methyl)-1-oxo-1,3,5,5a,6,7,8,9-octahydro-2H-pyrazino[1′,2′:4,5][1,4]oxazino[2,3-e]isoindol-2-yl)piperidine-2,6-dione] | > 75% | < 1 nM |  | < 1 nM | > 75% |  | < 10 nM |  |  | 
COc1cc(N2CCC3(CC2)CC(CN2CCN4c5ccc6c(c5OC[C@H]4C2)CN([C@H]2CCC(=O)NC2=O)C6=O)CO3)ccc1[C@H]1c2ccc(O)cc2CC[C@H]1c1ccccc1 (single isomer, unassigned) [Compound A52] |  | < 1 nM |  | < 1 nM |  |  | < 10 nM | 50 to 75% | > 75% | 
(S)-3-(1′-((2-(2-fluoro-4-((1S,2S)-6-hydroxy-2-phenyl-1,2,3,4-tetrahydronaphthalen-1-yl)-5-methoxyphenyl)-2-azaspiro[3.5]nonan-7-yl)methyl)-7-oxo-5,7-dihydro-2H,6H-spiro[furo[2,3-f]isoindole-3,4′-piperidin]-6-yl)piperidine-2,6-dione [Compound A166] |  | < 1 nM |  |  |  |  | < 10 nM |  |  | B (“B”: >50 and <75%)
COc1cc(N2CCC3(CC2)C[C@@H](CN2CCN4c5ccc6c(c5OC[C@H]4C2)CN([C@H]2CCC(=O)NC2=O)C6=O)CO3)ccc1[C@@H]1c2ccc(O)cc2CC[C@@H]1c1ccccc1 (single isomer, unassigned) [Compound A134] | > 75% | < 1 nM |  |  |  |  | < 10 nM |  |  | 
COc1cc(N2CCC3(CC2)C[C@H](CN2CCN4c5ccc6c(c5OC[C@H]4C2)CN([C@H]2CCC(=O)NC2=O)C6=O)CO3)ccc1[C@@H]1c2ccc(O)cc2CC[C@@H]1c1ccccc1 (single isomer, unassigned) [Compound A133] | > 75% | < 1 nM |  |  |  |  | < 10 nM |  |  | 
COc1cc(N2CC(CCN3CCC4(CC3)COc3cc5c(cc34)CN([C@H]3CCC(=O)NC3=O)C5=O)C2)c(F)cc1[C@@H]1c2ccc(O)cc2CC[C@@H]1c1ccccc1 [Compound A205, (S)-3-(1′-(2-(1-(2-fluoro-4-((1S,2S)-6-hydroxy-2-phenyl-1,2,3,4-tetrahydronaphthalen-1-yl)-5-methoxyphenyl)-azet-idin-3-yl)ethyl)-7-oxo-5,7-dihydro-2H,6H-spiro[furo[2,3-f]isoindole-3,4′-piperidin]-6-yl)piperidine-2,6-dione] |  | 1 to 10 nM | > 100 nM |  |  |  |  | 25 to 50% |  | 
COc1cc(N2CCC(CCN3CCN4c5cc(C)c6c(c5OC[C@H]4C3)CN([C@H]3CCC(=O)NC3=O)C6=O)CC2)c(F)cc1[C@@H]1c2ccc(O)cc2CC[C@@H]1c1ccccc1 [Compound A229, (S)-3-((R)-7-(2-(1-(2-fluoro-4-((1S,2S)-6-hydroxy-2-phenyl-1,2,3,4-tetrahydronaphthalen-1-yl)-5-methoxyphenyl)piper-idin-4-yl)ethyl)-12-methyl-1-oxo-1,3,5,5a,6,7,8,9-octahydro-2H-pyrazino[1′,2′:4,5][1,4]oxazino[2,3-e]isoindol-2-yl)-piperidine-2,6-dione] | > 75% | < 1 nM | 10 to 100 nM |  |  |  |  |  |  | 
COc1cc(N2CC3(CC(CN4CCC5(CC4)COc4c5ccc5c4CN([C@H]4CCC(=O)NC4=O)C5=O)C3)C2)c(F)cc1[C@@H]1c2ccc(O)cc2CC[C@@H]1c1ccccc1 [Compound A184, (S)-3-(1′-((2-(2-fluoro-4-((1S, 2S)-6-hydroxy-2-phenyl-1,2,3,4-tetrahydronaphthalen-1-yl)-5-methoxyphenyl)-2-aza-spiro[3.3]heptan-6-yl)methyl)-6-oxo-6,8-dihydro-2H,7H-spiro[furo[2,3-e]isoindole-3,4′-piperidin]-7-yl)piperidine-2,6-dione] |  |  | > 100 nM |  |  |  |  | 50 to 75% |  | 
